In one assay the target is GTPase KRas (Homo sapiens, UniProt P01116, G12D). In words: Inhibition of human KRAS G12D mutant in human AGS cells assessed as reduction in phosphorylated ERK level incubated for 3 hrs. In kind it is cell-based.
Assay [1] is described as follows: Inhibition of KRAS G12D mutant (unknown origin) to CRAF (unknown origin) protein protein interaction. On the set-up: species or system Homo sapiens.
The next assay concerns the target GTPase KRas/RAF1 (Homo sapiens, UniProt P01116). In words: Inhibition of KRAS (unknown origin) to CRAF (unknown origin) protein protein interaction. In kind it is protein assay.
For another assay, the species on record is Homo sapiens. In words: Selectivity ratio of IC50 for inhibition of KRAS G12D mutant (unknown origin) to CRAF (unknown origin) protein protein interaction to IC50 for KRAS (unknown origin) to CRAF (unknown origin) protein protein interaction. To be noted: tested as the 2H-labelled form.

Bounds are passed on as bounds.

GTPase KRas/RAF1, sequence (P04049 whole entry): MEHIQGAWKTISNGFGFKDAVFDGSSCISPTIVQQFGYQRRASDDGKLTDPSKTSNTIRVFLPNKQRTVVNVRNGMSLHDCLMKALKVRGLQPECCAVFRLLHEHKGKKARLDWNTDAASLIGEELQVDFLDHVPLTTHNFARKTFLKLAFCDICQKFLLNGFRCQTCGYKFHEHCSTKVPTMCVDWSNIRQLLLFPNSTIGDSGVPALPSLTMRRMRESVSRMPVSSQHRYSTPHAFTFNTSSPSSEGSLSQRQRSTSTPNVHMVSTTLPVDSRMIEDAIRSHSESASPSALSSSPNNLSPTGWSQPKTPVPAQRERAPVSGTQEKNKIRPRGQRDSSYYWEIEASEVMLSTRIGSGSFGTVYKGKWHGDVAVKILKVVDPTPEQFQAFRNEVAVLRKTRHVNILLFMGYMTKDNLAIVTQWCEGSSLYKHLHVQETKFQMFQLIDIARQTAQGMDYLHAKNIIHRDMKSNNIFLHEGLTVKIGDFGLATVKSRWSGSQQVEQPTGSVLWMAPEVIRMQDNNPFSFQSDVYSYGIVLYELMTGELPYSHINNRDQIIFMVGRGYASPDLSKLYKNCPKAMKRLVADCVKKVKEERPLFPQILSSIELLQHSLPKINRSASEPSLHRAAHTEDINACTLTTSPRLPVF
GTPase KRas/RAF1, sequence (P01116 whole entry): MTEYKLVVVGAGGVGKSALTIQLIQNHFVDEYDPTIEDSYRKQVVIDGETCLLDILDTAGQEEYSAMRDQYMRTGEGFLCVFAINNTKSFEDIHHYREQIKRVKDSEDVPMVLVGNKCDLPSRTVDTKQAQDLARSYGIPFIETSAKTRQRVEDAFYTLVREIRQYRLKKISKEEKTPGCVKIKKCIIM
GTPase KRas, sequence (P01116 whole entry G12D): as the sequence (P01116 whole entry) above, with G12D counted along it

Take `[2H]C1([2H])CC[C@@]2(COc3nc(N4CC5CCC4CN5)c4cnc(-c5cc(O)cc6ccc(F)c(F)c56)c(F)c4n3)C[C@@]([2H])(F)CN12` (some centres undefined): the half-inhibitory concentration (IC50) on GTPase KRas was no more than 50 nM.
`[2H]C1([2H])CC[C@@]2(COc3nc(N4CC5CCC4CN5)c4cnc(-c5cc(O)cc(F)c5C5CC5)c(F)c4n3)C[C@@]([2H])(F)CN12` (some centres undefined): the IC50 at GTPase KRas is greater than 50 nM.
Still for that read-out and setting: next, `Oc1cc(Cl)c(C(F)(F)F)c(-c2ncc3c(N4CC5CCC4CN5)nc(OCC45CCCN4CCC5)nc3c2F)c1` (centres undefined): greater than 1 nM.
As to `[2H]C1([2H])CC[C@@]2(COc3nc(N4CC5CCC4CN5)c4cnc(-c5cc(O)cc6ccc(F)c(C#C)c56)c(F)c4n3)C[C@@]([2H])(F)CN12` (some centres undefined), the figures for the IC50 (in assay [1]; against GTPase KRas/RAF1; at GTPase KRas) were 5.07 nM, 59.6 nM and no more than 50 nM, respectively.
For the compound `C#Cc1c(F)ccc2cc(O)cc(-c3ncc4c(N5CC6CCC5CN6)nc(OC[C@@]56CCCN5C[C@H](F)C6)nc4c3F)c12` (some centres undefined), in the assay listed under Homo sapiens, the Ratio IC50 was found to be 12.
On to `Oc1cc(Cl)c(C2CC2)c(-c2ncc3c(N4CC5CCC4CN5)nc(OC[C@@]45CCCN4C[C@H](F)C5)nc3c2F)c1` (some centres undefined), for which the Ratio IC50 in the assay listed under Homo sapiens was greater than 72. The IC50 on GTPase KRas was no more than 50 nM.
Regarding `[2H][C@H]1CN2CCC[C@@]2(COc2nc(N3CC4CCC3CN4)c3cnc(-c4cc(O)cc5ccc(F)c(C#C)c45)c(F)c3n2)C1` (some centres undefined), the IC50 was 3.95 nM in assay [1], 48.9 nM against GTPase KRas/RAF1 and no more than 50 nM at GTPase KRas.
In the case of `C#Cc1c(F)ccc2cc(O)cc(-c3ncc4c(N5CC6CCC5CN6)nc(OCC56CCCN5CCC6)nc4c3F)c12` (centres undefined), the Ratio IC50 in the assay filed under Homo sapiens turned out to be 12.
As to `[2H]C1([2H])CC[C@]2(COc3nc(N4CC5CCC4CN5)c4cnc(-c5cc(O)cc(Cl)c5C5CC5)c(F)c4n3)C[C@]([2H])(F)CN12` (some centres undefined), the IC50 on GTPase KRas is greater than 50 nM.
In the case of `[2H]C1([2H])CC[C@@]2(COc3nc(N4CC5CCC4CN5)c4cnc(-c5cc(O)cc(Cl)c5C5CC5)c(F)c4n3)C[C@@]([2H])(F)CN12` (some centres undefined), the IC50 in assay [1] was 13.9 nM; against GTPase KRas/RAF1, greater than 1000 nM; at GTPase KRas it was no more than 50 nM.
Turning to `Oc1ccc(C(F)(F)F)c(-c2ncc3c(N4CC5CCC4CN5)nc(OCC45CCCN4CCC5)nc3c2F)c1` (centres undefined), the IC50 on GTPase KRas was greater than 1 nM.
`Oc1cc(Cl)c(C2CC2)c(-c2ncc3c(N4CC5CCC4CN5)nc(OC[C@]45CCCN4C[C@@H](F)C5)nc3c2F)c1` (some centres undefined): the half-maximal inhibitory concentration (IC50) at GTPase KRas was greater than 50 nM.

The term IC50 denotes the point on the concentration scale where inhibition reaches its midpoint.

The record behind these values is ChEMBL document CHEMBL5247674, “Discovery of Selective and Potent KRASG12D Inhibitors as Potential Therapy in Cancer” (ACS Med Chem Lett, 2023).
